Test results: patent US20230129258A1, “HETEROTANDEM BICYCLIC PEPTIDE COMPLEXES” (BicycleTx Limited, priority 2019, published 2023)
Where two headings read alike, the source gives them in different places. Starred links: 1 amine or outer side, 2 acyl side, 3 side chain; linkers in the order of their positions; H or OH if unused. Positions of bridges follow the written chain, without caps; N, C: chain ends. Non-standard residues stand in square brackets, D forms with d. Chains are numbered I, II in the order given. X1 = O=C(CCOCCOCCOCCN(CCOCCOCCOCCn1cc(CCC(=O)[*:2])nn1)CCOCCOCCOCCn1cc(CCC(=O)[*:3])nn1)[*:1]; TATA = O=C(CC[*:1])N1CN(C(=O)CC[*:2])CN(C(=O)CC[*:3])C1; Dip = N[C@H](C(=O)O)C(c1ccccc1)c1ccccc1; Hyp = O=C(O)[C@@H]1C[C@@H](O)CN1; hArg = N=C(N)NCCCC[C@H](N)C(=O)O; tBuAla = CC(C)(C)C[C@H](N)C(=O)O; Nle = CCCC[C@H](N)C(=O)O

Legend:
Assay type in all cases: cell-based
CD137 [1] = target: T1, CD137 (Homo sapiens, UniProt Q07011); assay: CD137 reporter assay (Promega CD137 luciferase reporter, Jurkat cells) in co-culture with Nectin-4-expressing tumor cells; set-up: host or cells: Jurkat reporter cells; conditions: co-culture with HT1376, Table 2A; for EC50: EC50 (nM)
T1 sequence (Q07011 24-255): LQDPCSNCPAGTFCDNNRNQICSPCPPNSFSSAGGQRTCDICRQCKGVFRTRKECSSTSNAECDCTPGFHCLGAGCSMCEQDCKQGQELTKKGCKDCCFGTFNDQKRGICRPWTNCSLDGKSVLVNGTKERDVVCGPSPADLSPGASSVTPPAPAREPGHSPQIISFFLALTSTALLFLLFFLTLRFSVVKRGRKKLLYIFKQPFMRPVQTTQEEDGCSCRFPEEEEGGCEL

human PBMCs = assay: Human PBMC co-culture cytokine secretion assay with EphA2-expressing tumor cells (MC38, HT-1080, HT29); conditions: human PBMC-MC38 co-culture
Method: […] MC38 were cultured in Dulbecco's Modified Eagle Medium supplemented with 10% heat inactivated Fetal Bovine Serum (FBS), 1× Penicillin/Streptomycin, 10 mM HEPES, and 2 mM L-Glutamine (referred to as R10 medium). Frozen PBMCs from healthy human donors were thawed and washed once in room temperature PBS with benzonase, and then resuspended in RPMI supplemented with 10% heat inactivated Fetal Bovine Serum (FBS), 1× Penicillin/Streptomycin, 10 mM HEPES, and 2 mM L-Glutamine (herein referred to as R10 medium). 100 μl of PBMCs (1,000,000 PBMCs/ml) and 100 μl of tumor cells (100,000 tumor cells/ml) (Effector:Target cell ratio (E:T) 10:1) were plated in each well of a 96 well flat bottom plate for the co-culture assay. 100 ng/ml of soluble anti-CD3 mAb (clone OKT3) was added to the culture on day 0 to stimulate human PBMCs. Test, control compounds, or vehicle controls were diluted in R10 media and 50 μL was added to respective wells to bring the final volume per well to 250 μL. Plates were covered with a breathable film and incubated in a humidified chamber at 37° C. with 5% CO2 for two days. […] Briefly, the standards and samples were added to a black 96 well plate. Microparticle cocktail (provided in Luminex kit, R&D Systems) was added and shaken for 2 hours at room temperature. The plate was washed 3 times using a magnetic holder. Biotin cocktail was then added to the plate and shaken for 1 hour at RT. The plate was washed 3 times using a magnetic holder. Streptavidin cocktail was added to the plate and shaken for 30 minutes at RT. The plates were washed 3 times using a magnetic holder, resuspended in 100 μL of wash buffer, shaken for 2 minutes at RT, and read using the Luminex 2000. Raw data were analyzed using built-in Luminex software to generate standard curves and interpolate protein concentrations, all other data analyses and graphing were performed using Excel and Prism software. Data represents one study with three independent donor PBMCs tested in experimental duplicates.
Similarly, PBMCs from healthy donors were co-cultured with EphA2 expressing cancer cells (MC38 and HT-1080) at a ratio of 5:1 in presence of anti-CD3 and BCY13272. […]

CD137 [2] = target: T1, CD137; assay: CD137 reporter assay (Promega, Jurkat cells) in co-culture with EphA2-expressing tumor cells (A549, PC3, HT29); set-up: host or cells: Jurkat reporter cells
Outline: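 Promega CD137 luciferase reporter Jurkat cells co-cultured with tumor cells (RKO for PD-L1; A549, PC3, HT29 for EphA2) and serially diluted test articles in RPMI + 1% FBS, 6 h at 37° C. Bio-Glo luminescence as fold change over cells alone; log(agonist)-response fit gives EC50 (nM) and max fold induction.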

CCCC[C@@H]1NC(=O)[C@H](Cc2ccc(O)cc2)NC(=O)[C@@H]2CCCN2C(=O)[C@H](CC(=O)O)NC(=O)[C@H](C)NC(=O)[C@H](Cc2ccccc2)NC(=O)[C@@H]2CSCCC(=O)N3CN(CN(C3)C(=O)CCSC[C@@H](C(=O)N[C@@H](C)C(N)=O)NC1=O)C(=O)CCSC[C@H](NC(C)=O)C(=O)N[C@@H](CC(C)(C)C)C(=O)N1CCC[C@H]1C(=O)N[C@@H](CCC(=O)O)C(=O)N[C@H](CCCCNC(=O)CCc1cn(CCOCCOCCOCCN(CCOCCOCCOCCC(=O)NCCCC[C@H]3NC(=O)[C@H](Cc4cccc5ccccc45)NC(=O)[C@@H]4CCCN4C(=O)[C@@H](NC(C)=O)CSCCC(=O)N4CN5CN(C4)C(=O)CCSC[C@H](NC3=O)C(=O)N[C@@H](CCSC)C(=O)N[C@@H](CCCCNC(=N)N)C(=O)N[C@@H](CC(=O)O)C(=O)N[C@@H](Cc3c[nH]c4ccccc34)C(=O)N[C@@H](CO)C(=O)N[C@@H]([C@@H](C)O)C(=O)N3CCC[C@H]3C(=O)N3C[C@H](O)C[C@H]3C(=O)N[C@@H](Cc3c[nH]c4ccccc34)C(=O)N[C@H](C(N)=O)CSCCC5=O)CCOCCOCCOCCn3cc(CCC(=O)NCCCC[C@H]4NC(=O)[C@H](CCC(=O)O)NC(=O)[C@@H]5CCCN5C(=O)[C@H](CC(C)(C)C)NC(=O)[C@@H](NC(C)=O)CSCCC(=O)N5CN6CN(C5)C(=O)CCSC[C@H](NC(=O)[C@H](Cc5ccc(O)cc5)NC(=O)[C@@H]5CCCN5C4=O)C(=O)N[C@@H](Cc4ccccc4)C(=O)N[C@@H](C)C(=O)N[C@@H](CC(=O)O)C(=O)N4CCC[C@H]4C(=O)N[C@@H](Cc4ccc(O)cc4)C(=O)N[C@@H](CCCC)C(=O)N[C@H](C(=O)N[C@@H](C)C(N)=O)CSCCC6=O)nn3)nn1)C(=O)N1CCC[C@H]1C(=O)N[C@@H](Cc1ccc(O)cc1)C(=O)N2 [BCY12490] showed an EC50 (CD137 [1]) of 0.23 nM.

CCCC[C@@H]1NC(=O)[C@H](Cc2ccc(O)cc2)NC(=O)[C@@H]2CCCN2C(=O)[C@H](CCC(=O)O)NC(=O)[C@H](C)NC(=O)[C@H](Cc2ccccc2)NC(=O)[C@@H]2CSCCC(=O)N3CN(CN(C3)C(=O)CCSC[C@H](NC(C)=O)C(=O)N[C@@H](CC(C)(C)C)C(=O)N3CCC[C@H]3C(=O)N[C@@H](CCC(=O)O)C(=O)N[C@H](CCCCNC(=O)CCc3cn(CCOCCOCCOCCN(CCOCCOCCOCCC(=O)N[C@H]4CSCCC(=O)N5CN6CN(C5)C(=O)CCSC[C@H](NC(=O)[C@@H](CC(=O)O)NC(=O)[C@H](Cc5cccc7ccccc57)NC(=O)[C@@H]5CCCN5C4=O)C(=O)N[C@@H](CCSC)C(=O)N[C@@H](CCCCNC(=N)N)C(=O)N[C@@H](CC(=O)O)C(=O)N[C@@H](Cc4c[nH]c5ccccc45)C(=O)N[C@@H](CO)C(=O)N[C@@H]([C@@H](C)O)C(=O)N4CCC[C@H]4C(=O)N4C[C@H](O)C[C@H]4C(=O)N[C@@H](Cc4c[nH]c5ccccc45)C(=O)N[C@H](C(N)=O)CSCCC6=O)CCOCCOCCOCCn4cc(CCC(=O)NCCCC[C@H]5NC(=O)[C@H](CCC(=O)O)NC(=O)[C@@H]6CCCN6C(=O)[C@H](CC(C)(C)C)NC(=O)[C@@H](NC(C)=O)CSCCC(=O)N6CN7CN(C6)C(=O)CCSC[C@H](NC(=O)[C@H](Cc6ccc(O)cc6)NC(=O)[C@@H]6CCCN6C5=O)C(=O)N[C@@H](Cc5ccccc5)C(=O)N[C@@H](C)C(=O)N[C@@H](CCC(=O)O)C(=O)N5CCC[C@H]5C(=O)N[C@@H](Cc5ccc(O)cc5)C(=O)N[C@@H](CCCC)C(=O)N[C@H](C(N)=O)CSCCC7=O)nn4)nn3)C(=O)N3CCC[C@H]3C(=O)N[C@@H](Cc3ccc(O)cc3)C(=O)N2)C(=O)CCSC[C@@H](C(N)=O)NC1=O [BCY12487] was tested, and the Emax (CD137 [1]) was 12 fold induction over background.

Compound CCCC[C@@H]1NC(=O)[C@H](Cc2ccc(O)cc2)NC(=O)[C@@H]2CCCN2C(=O)[C@H](CC(=O)O)NC(=O)[C@H](C)NC(=O)[C@H](Cc2ccccc2)NC(=O)[C@@H]2CSCCC(=O)N3CN(CN(C3)C(=O)CCSC[C@@H](C(=O)N[C@@H](C)C(N)=O)NC1=O)C(=O)CCSC[C@H](NC(C)=O)C(=O)N[C@@H](CC(C)(C)C)C(=O)N1CCC[C@H]1C(=O)N[C@@H](CCC(=O)O)C(=O)N[C@H](CCCCNC(=O)CCc1cn(CCOCCOCCOCCOCCOCCOCCOCCOCCOCCOCCNC(=O)c3cc(C(=O)NCCOCCOCCOCCOCCOCCOCCOCCOCCOCCOCCn4cc(CCC(=O)NCCCC[C@H]5NC(=O)[C@H](CCC(=O)O)NC(=O)[C@@H]6CCCN6C(=O)[C@H](CC(C)(C)C)NC(=O)[C@@H](NC(C)=O)CSCCC(=O)N6CN7CN(C6)C(=O)CCSC[C@H](NC(=O)[C@H](Cc6ccc(O)cc6)NC(=O)[C@@H]6CCCN6C5=O)C(=O)N[C@@H](Cc5ccccc5)C(=O)N[C@@H](C)C(=O)N[C@@H](CC(=O)O)C(=O)N5CCC[C@H]5C(=O)N[C@@H](Cc5ccc(O)cc5)C(=O)N[C@@H](CCCC)C(=O)N[C@H](C(=O)N[C@@H](C)C(N)=O)CSCCC7=O)nn4)cc(C(=O)NCCOCCOCCOCCOCCOCCOCCOCCOCCOCCOCCn4cc(CCC(=O)N[C@H]5CSCCC(=O)N6CN7CN(C6)C(=O)CCSC[C@H](NC(=O)[C@@H](CC(=O)O)NC(=O)[C@H](Cc6cccc8ccccc68)NC(=O)[C@@H]6CCCN6C5=O)C(=O)N[C@@H](CCSC)C(=O)N[C@@H](CCCCNC(=N)N)C(=O)N[C@@H](CC(=O)O)C(=O)N[C@@H](Cc5c[nH]c6ccccc56)C(=O)N[C@@H](CO)C(=O)N[C@@H]([C@@H](C)O)C(=O)N5CCC[C@H]5C(=O)N5C[C@H](O)C[C@H]5C(=O)N[C@@H](Cc5c[nH]c6ccccc56)C(=O)N[C@H](C(N)=O)CSCCC7=O)nn4)c3)nn1)C(=O)N1CCC[C@H]1C(=O)N[C@@H](Cc1ccc(O)cc1)C(=O)N2 [BCY10918] has an EC50 (CD137 [1]) of 0.16 nM.

For “I: A[hArg]DC[Hyp]LVNPLCL[Dip]P[dD]WTC-NH2 / II: Ac-C[tBuAla]PE[dK]PYCFADPY[Nle]CA-NH2 / III: Ac-C[tBuAla]PE[dK]PYCFADPY[Nle]CA-NH2 (linker I:4-I:11-I:18, II:1-II:8-II:15, III:1-III:8-III:15 via TATA; linker I:N-II:5-III:5 via X1) [BCY13047]”, the EC50 (human PBMCs; Donor 1, 48 h incubation, read-out: Donor 1 EC50 of IFNγ secretion) was 0.31 nM, the EC50 (human PBMCs; Donor 2, 48 h incubation, read-out: Donor 2 EC50 of IFNγ secretion) was 0.3 nM and the “Emax (fold induction over background)” value (CD137 [2]; CD137 reporter coculture assay with PC3 tumor cells) was 46.43. The EC50 (CD137 [2]; EC50, CD137 reporter coculture assay with PC3 tumor cells) was 0.07 nM.
